In US8889676B2, “3-ureidoisoquinolin-8-yl derivatives” (Actelion Pharmaceuticals Ltd., priority 2011, dated 2014):
≈ marks a conversion by molar mass, not a printed value.

Each compound was assayed on S. pneumoniae ATCC 49619 (assay: Minimal inhibitory concentration (MIC) by broth microdilution (CLSI M7-A7)). Details: Streptococcus pneumoniae, ATCC49619; cation-adjusted Mueller Hinton Broth supplemented with 3% (v/v) lysed horse blood; microdilution method.
Type: cell-based, Streptococcus pneumoniae
In short: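 Broth microdilution per CLSI M7-A7 in cation-adjusted Mueller-Hinton broth with 3% (v/v) lysed horse blood for S. pneumoniae. MIC in mg/l.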
Work on `CCNC(=O)Nc1cc2c(Cl)ccc(CNC(=O)OC)c2cn1` [Example 159, [5-chloro-3-(3-ethyl-ureido)-isoquinolin-8-ylmethyl]-carbamic acid methyl ester] yielded an MIC of 1 µg/mL (≈ 2.97 µM). In the case of `CCNC(=O)Nc1cc2c(-c3ccncc3)ccc(CNC(=O)OCC#CCN)c2cn1` [Example 109, [3-(3-ethyl-ureido)-5-pyridin-4-yl-isoquinolin-8-ylmethyl]-carbamic acid 4-amino-but-2-ynyl ester], the MIC is reported as 2 µg/mL (≈ 4.62 µM). Work on `C#CCOC(=O)NCc1ccc(-c2cccnc2)c2cc(NC(=O)NCC)ncc12.Cl` [Example 125, [3-(3-ethyl-ureido)-5-pyridin-3-yl-isoquinolin-8-ylmethyl]-carbamic acid prop-2-ynyl ester hydrochloride] yielded an MIC of 1 µg/mL. With `CCNC(=O)Nc1cc2cccc(CNC(=O)OCc3ccccc3)c2cn1.Cl` [Example 36, [3-(3-ethyl-ureido)-isoquinolin-8-ylmethyl]-carbamic acid benzyl ester hydrochloride] the MIC was 4 µg/mL. `C#CCOC(=O)NCc1ccc(-c2ccc(CO)cc2)c2cc(NC(=O)NCC)ncc12.Cl` [Example 143, [3-(3-ethyl-ureido)-5-(4-hydroxymethyl-phenyl)-isoquinolin-8-ylmethyl]-carbamic acid prop-2-ynyl ester hydrochloride] showed an MIC of 0.5 µg/mL. `C#CCOC(=O)NCc1ccc(-c2ccncc2C)c2cc(NC(=O)NCC)ncc12` [Example 126, [3-(3-ethyl-ureido)-5-(3-methyl-pyridin-4-yl)-isoquinolin-8-ylmethyl]-carbamic acid prop-2-ynyl ester] was tested, and the MIC was 1 µg/mL (≈ 2.4 µM). With `C#CC(=O)NCc1cccc2cc(NC(=O)NCC)ncc12` [Example 9, propynoic acid [3-(3-ethyl-ureido)-isoquinolin-8-ylmethyl]-amide] the MIC was 2 µg/mL (≈ 6.75 µM). Compound `CCNC(=O)Nc1cc2c(-c3ccncc3)ccc(CNC(=O)CCOC)c2cn1` [Example 63, N-[3-(3-ethyl-ureido)-5-pyridin-4-yl-isoquinolin-8-ylmethyl]-3-methoxy-propionamide] has an MIC of 1 µg/mL (≈ 2.45 µM). Compound `CCNC(=O)Nc1cc2cccc(CNC(=O)CNC(C)=O)c2cn1` [Example 8, 2-acetylamino-N-[3-(3-ethyl-ureido)-isoquinolin-8-ylmethyl]-acetamide] has an MIC of 8 µg/mL (≈ 23.3 µM). `CCNC(=O)Nc1cc2c(-c3ccnc(C#N)c3)ccc(CNC(=O)OCCOC)c2cn1` [Example 120, [5-(2-cyano-pyridin-4-yl)-3-(3-ethyl-ureido)-isoquinolin-8-ylmethyl]-carbamic acid 2-methoxy-ethyl ester] showed an MIC of 1 µg/mL (≈ 2.23 µM). In the case of `CCNC(=O)Nc1cc2c(-c3ccncc3)ccc(CNC(=O)OCCN3C(=O)CCC3=O)c2cn1.Cl` [Example 97, [3-(3-ethyl-ureido)-5-pyridin-4-yl-isoquinolin-8-ylmethyl]-carbamic acid 2-(2,5-dioxo-pyrrolidin-1-yl)-ethyl ester hydrochloride], the MIC is reported as 2 µg/mL. `C#CCOC(=O)NCc1ccc(-c2cccc(CC(=O)O)c2)c2cc(NC(=O)NCC)ncc12.Cl` [Example 135, {3-[3-(3-ethyl-ureido)-8-(prop-2-ynyloxycarbonylamino-methyl)-isoquinolin-5-yl]-phenyl}-acetic acid hydrochloride] was tested, and the MIC was 4 µg/mL. `CCNC(=O)Nc1cc2cccc(CNC(=O)CC3CC3)c2cn1` [Example 7, 2-cyclopropyl-N-[3-(3-ethyl-ureido)-isoquinolin-8-ylmethyl]-acetamide] gave an MIC of 2 µg/mL (≈ 6.13 µM). `CCNC(=O)Nc1cc2cccc(CNC(=O)COC)c2cn1` [Example 15, N-[3-(3-ethyl-ureido)-isoquinolin-8-ylmethyl]-2-methoxy-acetamide] was tested, and the MIC was 4 µg/mL (≈ 12.6 µM). `CCNC(=O)Nc1cc2c(-c3ccncc3)ccc(CNC(=O)OCCN3CCN(C(=O)OC(C)(C)C)CC3)c2cn1` [Example 83, tert-butyl 4-(2-((((3-(3-ethylureido)-5-(pyridin-4-yl)isoquinolin-8-yl)methyl)carbamoyl)oxy)ethyl)piperazine-1-carboxylate] gave an MIC of 1 µg/mL (≈ 1.73 µM). With `CCNC(=O)Nc1cc2c(-c3ccncc3)ccc(CNC(=O)CCCNC(=O)OC(C)(C)C)c2cn1` [Example 56, (3-{[3-(3-ethyl-ureido)-5-pyridin-4-yl-isoquinolin-8-ylmethyl]-carbamoyl}-propyl)-carbamic acid tert-butyl ester] the MIC was 1 µg/mL (≈ 1.97 µM). For `CCNC(=O)Nc1cc2c(-c3ccnc(C)c3)ccc(CNC(=O)OC)c2cn1` [Example 175, [3-(3-ethyl-ureido)-5-(2-methyl-pyridin-4-yl)-isoquinolin-8-ylmethyl]-carbamic acid methyl ester], the MIC was 0.5 µg/mL (≈ 1.27 µM). In the case of `C#CCOC(=O)NCc1ccc(-c2ccc(O)cc2)c2cc(NC(=O)NCC)ncc12.Cl` [Example 138, [3-(3-ethyl-ureido)-5-(4-hydroxy-phenyl)-isoquinolin-8-ylmethyl]-carbamic acid prop-2-ynyl ester hydrochloride], the MIC is reported as 0.5 µg/mL. `CCNC(=O)Nc1cc2c(-c3ccnc(CC(=O)NC)c3)ccc(CNC(=O)OC)c2cn1` [Example 193, [3-(3-ethyl-ureido)-5-(2-(methylcarbamoyl-methyl)-pyridin-4-yl)-isoquinolin-8-ylmethyl]-carbamic acid methyl ester] showed an MIC of 8 µg/mL (≈ 17.8 µM). `CCNC(=O)Nc1cc2c(-c3ccnc(C)c3)ccc(CNC(=O)OC(C)(C)C)c2cn1` [Example 176, [3-(3-ethyl-ureido)-5-(2-methyl-pyridin-4-yl)-isoquinolin-8-ylmethyl]-carbamic acid tert-butyl ester] was tested, and the MIC was 1 µg/mL (≈ 2.3 µM). Compound `CCNC(=O)Nc1cc2c(-c3ccncc3)ccc(CNC(=O)CCO)c2cn1` [Example 68, N-[3-(3-ethyl-ureido)-5-pyridin-4-yl-isoquinolin-8-ylmethyl]-3-hydroxy-propionamide] has an MIC of 4 µg/mL (≈ 10.2 µM). `CCNC(=O)Nc1cc2c(-c3ccnc(C)c3)ccc(CNC(=O)c3ncc[nH]3)c2cn1` [Example 156, 1H-imidazole-2-carboxylic acid [3-(3-ethyl-ureido)-5-(2-methyl-pyridin-4-yl)-isoquinolin-8-ylmethyl]-amide] gave an MIC of 0.5 µg/mL (≈ 1.16 µM). `CCNC(=O)Nc1cc2c(-c3ccnc(F)c3C)ccc(CNC(=O)OC)c2cn1.Cl` [Example 187, [3-(3-ethyl-ureido)-5-(2-fluoro-3-methyl-pyridin-4-yl)-isoquinolin-8-ylmethyl]-carbamic acid methyl ester hydrochloride] showed an MIC of 4 µg/mL. With `CCNC(=O)Nc1cc2c(-c3ccncc3)ccc(CNC(=O)OCCOC)c2cn1` [Example 114, [3-(3-ethyl-ureido)-5-pyridin-4-yl-isoquinolin-8-ylmethyl]-carbamic acid 2-methoxy-ethyl ester] the MIC was 0.5 µg/mL (≈ 1.18 µM). `CCNC(=O)Nc1cc2c(-c3ccncc3)ccc(CNC(=O)OCCCN3CCCCC3)c2cn1.Cl` [Example 92, [3-(3-ethyl-ureido)-5-pyridin-4-yl-isoquinolin-8-ylmethyl]-carbamic acid 3-piperidin-1-yl-propyl ester hydrochloride] was tested, and the MIC was 4 µg/mL. In the case of `CCNC(=O)Nc1cc2c(-c3cc(C)ncc3C)ccc(CNC(=O)OC)c2cn1.Cl` [Example 190, [5-(2,5-dimethyl-pyridin-4-yl)-3-(3-ethyl-ureido)-isoquinolin-8-ylmethyl]-carbamic acid methyl ester hydrochloride], the MIC is reported as 4 µg/mL. `CCNC(=O)Nc1cc2c(-c3ccnc(C)c3C)ccc(CNC(=O)OC)c2cn1.Cl` [Example 189, [5-(2,3-dimethyl-pyridin-4-yl)-3-(3-ethyl-ureido)-isoquinolin-8-ylmethyl]-carbamic acid methyl ester hydrochloride] gave an MIC of 8 µg/mL.
